In one data set the test system is MDA-MB-231 cells. As to the kind of experiment: MDA-MB-231 cell proliferation combination assay, combination index (CompuSyn, Chou and Talalay). It is filed as cell-based. The source says:
(§1) Multimodal use of chemotherapy remains ineffective in metastatic Her2+ and triple negative breast cancers (TNBC). In TNBC, targeted therapies in addition to Olaparib are desperately needed and determination of combination treatments need to be established. Because it is known that CDK12 and CDK13 control expression of genes involved in DNA damage repair, we examined whether inhibition of CDK12/13 augmented the killing effect of a select set of TNBC clinical agents. […] The CI offers a quantitative measure to determine if a combination of agents acts in synergy (CI<1), additively (CI=1), or is antagonistic (CI>1).
(§2) Cell proliferation was measured 72 hr after compound or vehicle treatment using Cell-Titer Glo (Promega) according to the manufacturers' instructions. EC50 values were determined using non-linear regression and a four-parameter algorithm (GraphPad Prism5). For clonogenic assays, cells were plated in 6-well dishes in triplicate at a density of 500-1000 cells per well. After overnight incubation, compound or vehicle (DMSO) was added to media for 72 hr and cells were allowed to grow out for 7-10 days, during which media was changed every 2-3 days in the absence of compound. […] Colonies with greater than 50 cells were counted using a low magnification light microscope.

The nature of data set [1]: Solubility in pH 7.4 phosphate buffered saline. The format is physicochemical. The note with it: aqueous buffer.
The target in the next data set is CK1ε (Homo sapiens, UniProt P49674). The experiment in a line: In-house kinase inhibition assay, CK1ε. The format is biochemical. The text has this: (§3) [drawing 21] wherein the substituents W, X, Y, Z, and R^1, are as specified in the respective Table columns.
A further data set addresses T1, CYP 1A2 (Homo sapiens, UniProt P05177).
T1 sequence (P05177 1-516): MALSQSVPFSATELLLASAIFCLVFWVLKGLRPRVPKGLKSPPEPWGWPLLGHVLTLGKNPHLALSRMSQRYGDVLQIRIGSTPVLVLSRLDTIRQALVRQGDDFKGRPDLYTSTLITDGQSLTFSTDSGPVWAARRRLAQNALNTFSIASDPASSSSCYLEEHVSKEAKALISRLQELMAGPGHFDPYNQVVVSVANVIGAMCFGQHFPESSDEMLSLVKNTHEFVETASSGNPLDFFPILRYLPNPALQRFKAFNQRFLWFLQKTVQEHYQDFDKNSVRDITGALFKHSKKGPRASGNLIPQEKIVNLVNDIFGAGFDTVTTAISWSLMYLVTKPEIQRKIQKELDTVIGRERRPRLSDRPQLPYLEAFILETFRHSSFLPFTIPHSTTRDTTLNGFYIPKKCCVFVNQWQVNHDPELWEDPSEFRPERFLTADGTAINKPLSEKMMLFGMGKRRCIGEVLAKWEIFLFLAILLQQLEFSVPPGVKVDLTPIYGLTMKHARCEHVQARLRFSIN
The experiment in a line: Cytochrome P450 inhibition assay, 1A2. It is filed as in vitro ADME.

A further data set has as its target CYP 2D6 (Homo sapiens, UniProt P10635). The experiment in a line: Cytochrome P450 inhibition assay, 2D6. The format is in vitro ADME.
Data set [2] is described as follows: Microsome stability, rat liver microsomes. The format is in vitro ADME. The conditions noted are these: read-out: Microsome stability t1/2 (R). For orientation: Liver microsomes are a subcellular fraction often used to study metabolism.
The subject of another data set is U87 cell line. The experiment in a line: Cell proliferation / growth inhibition, U87, 72 h (Cell-Titer Glo). It is filed as cell-based. The conditions noted are these: Homo sapiens, U-87 MG.
The target in another data set is CK1δ (Homo sapiens, UniProt P48730). As to the kind of experiment: In-house kinase inhibition assay, CK1δ. The format is biochemical. The note with it: read-out: CK1δ IC50, read-out: CK1σ IC50.
Text: as §3

The next data set deals with MDA-MB-231 cell line. As to the kind of experiment: Cell proliferation / growth inhibition, MDA-MB-231, 72 h (Cell-Titer Glo). The format is cell-based. The note with it: Homo sapiens.
Data set [3] is described as follows: Microsome stability, human liver microsomes. The conditions noted are these: read-out: Microsome stability t1/2 (H). The format is in vitro ADME.
The next data set has as its target T2, CDK13 (Homo sapiens, UniProt Q14004).
T2 construct: purchased DiscoverX
As to the kind of experiment: Competition binding assay, DiscoverX (Kinomescan), CDK13.
Text: as §3
In addition to screening a selected set of new inhibitors in CDK12/13 enzyme assays using Kinomescan™ technology, we tested all new compounds in a mechanism of action assay, which detects inhibition of phosphorylation of serine 2 (pSer2) on the C-terminal repeat domain (CTD) of RNA pol II. […] In order to confirm that CDK12/13 inhibition is driving cell death, we also plotted the growth inhibition pIC50's with pSer2 inhibition data. There was a good correlation when using the cell proliferation data from both U87 and MDA-MB-231 cell lines (FIGS. 5 and 6).

A short description of data set [4]: Microsome stability, mouse liver microsomes. The format is in vitro ADME. The note with it: read-out: Microsome stability t1/2.
Data set [5] relates to anti-Her2+ sensitive and resistant cell lines. As to the kind of experiment: Cell proliferation combination assay in Her2+ breast cancer cell lines (CompuSyn). The format is cell-based. The note with it: certain anti-Her2+ sensitive and resistant cell lines.
Text: as §1, §2

A further data set addresses CYP 2C9 (Homo sapiens, UniProt P11712). As to the kind of experiment: Cytochrome P450 inhibition assay, 2C9. It is filed as in vitro ADME.

Values after ≈ are worked out from the molar mass of the structure shown. Where only a bound is given, the exact number is not on record here.

CK1ε, sequence (P49674 whole entry): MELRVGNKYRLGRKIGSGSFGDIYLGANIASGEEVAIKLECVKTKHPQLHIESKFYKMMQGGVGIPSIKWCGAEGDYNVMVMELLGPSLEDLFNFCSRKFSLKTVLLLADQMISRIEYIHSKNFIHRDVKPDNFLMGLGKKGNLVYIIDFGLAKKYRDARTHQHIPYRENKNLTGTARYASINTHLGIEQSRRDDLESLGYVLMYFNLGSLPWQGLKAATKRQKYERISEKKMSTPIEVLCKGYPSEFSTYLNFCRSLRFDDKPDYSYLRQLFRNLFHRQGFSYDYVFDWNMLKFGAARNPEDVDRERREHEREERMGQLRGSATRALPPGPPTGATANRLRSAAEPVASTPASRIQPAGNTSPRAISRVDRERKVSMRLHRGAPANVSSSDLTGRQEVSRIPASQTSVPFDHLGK
T2 sequence (Q14004 whole entry): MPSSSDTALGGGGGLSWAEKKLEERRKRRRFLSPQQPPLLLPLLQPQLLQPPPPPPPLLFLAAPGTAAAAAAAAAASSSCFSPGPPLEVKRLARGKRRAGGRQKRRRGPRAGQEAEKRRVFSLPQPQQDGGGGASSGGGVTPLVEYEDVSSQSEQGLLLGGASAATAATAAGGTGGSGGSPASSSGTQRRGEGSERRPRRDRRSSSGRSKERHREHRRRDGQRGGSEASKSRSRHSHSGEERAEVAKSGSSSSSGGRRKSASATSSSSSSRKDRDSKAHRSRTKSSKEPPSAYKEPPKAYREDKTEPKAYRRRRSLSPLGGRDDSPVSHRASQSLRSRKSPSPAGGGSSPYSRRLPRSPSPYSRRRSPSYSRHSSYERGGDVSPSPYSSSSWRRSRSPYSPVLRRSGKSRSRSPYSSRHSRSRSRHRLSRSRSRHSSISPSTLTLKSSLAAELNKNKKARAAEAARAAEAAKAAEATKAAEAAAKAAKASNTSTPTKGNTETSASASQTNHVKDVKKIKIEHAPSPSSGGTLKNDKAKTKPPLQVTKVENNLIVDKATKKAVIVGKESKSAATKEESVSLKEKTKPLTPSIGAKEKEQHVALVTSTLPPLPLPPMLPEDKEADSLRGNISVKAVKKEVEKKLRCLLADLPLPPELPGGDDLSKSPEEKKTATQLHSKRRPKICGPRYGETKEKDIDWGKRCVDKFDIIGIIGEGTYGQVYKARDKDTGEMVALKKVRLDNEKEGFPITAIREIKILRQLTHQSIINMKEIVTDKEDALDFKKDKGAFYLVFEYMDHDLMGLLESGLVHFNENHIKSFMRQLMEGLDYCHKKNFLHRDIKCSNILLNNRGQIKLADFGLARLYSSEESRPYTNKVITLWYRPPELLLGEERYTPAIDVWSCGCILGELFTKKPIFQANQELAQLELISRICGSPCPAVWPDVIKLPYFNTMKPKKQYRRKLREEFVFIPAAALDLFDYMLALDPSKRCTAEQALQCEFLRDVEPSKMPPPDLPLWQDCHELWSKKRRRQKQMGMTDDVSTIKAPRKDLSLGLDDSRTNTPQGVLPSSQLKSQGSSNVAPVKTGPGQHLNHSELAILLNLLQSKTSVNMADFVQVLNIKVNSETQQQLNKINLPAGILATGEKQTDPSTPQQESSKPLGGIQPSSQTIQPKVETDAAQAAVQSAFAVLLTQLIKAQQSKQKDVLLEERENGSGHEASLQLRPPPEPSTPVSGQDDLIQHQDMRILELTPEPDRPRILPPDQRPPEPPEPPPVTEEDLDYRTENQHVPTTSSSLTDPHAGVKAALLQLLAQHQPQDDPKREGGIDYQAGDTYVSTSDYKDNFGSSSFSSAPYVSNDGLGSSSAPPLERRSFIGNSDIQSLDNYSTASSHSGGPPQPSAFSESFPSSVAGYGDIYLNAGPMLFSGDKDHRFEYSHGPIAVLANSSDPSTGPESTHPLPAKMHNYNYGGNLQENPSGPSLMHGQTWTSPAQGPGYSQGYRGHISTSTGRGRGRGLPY
CYP 2D6, sequence (P10635 whole entry): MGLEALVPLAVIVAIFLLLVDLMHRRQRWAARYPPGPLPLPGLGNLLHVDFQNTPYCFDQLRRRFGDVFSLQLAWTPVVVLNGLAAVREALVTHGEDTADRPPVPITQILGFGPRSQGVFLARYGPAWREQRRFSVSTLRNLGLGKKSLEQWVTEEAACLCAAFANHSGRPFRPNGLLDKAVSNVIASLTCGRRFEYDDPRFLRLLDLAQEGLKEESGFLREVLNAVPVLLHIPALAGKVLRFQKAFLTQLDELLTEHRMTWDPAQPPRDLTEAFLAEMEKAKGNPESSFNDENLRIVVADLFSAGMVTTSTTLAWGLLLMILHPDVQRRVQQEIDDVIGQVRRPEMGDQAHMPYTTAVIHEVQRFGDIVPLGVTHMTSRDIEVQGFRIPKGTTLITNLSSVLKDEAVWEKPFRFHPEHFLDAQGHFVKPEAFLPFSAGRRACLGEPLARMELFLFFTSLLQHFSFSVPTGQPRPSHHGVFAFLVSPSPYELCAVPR
CK1δ, sequence (P48730 whole entry): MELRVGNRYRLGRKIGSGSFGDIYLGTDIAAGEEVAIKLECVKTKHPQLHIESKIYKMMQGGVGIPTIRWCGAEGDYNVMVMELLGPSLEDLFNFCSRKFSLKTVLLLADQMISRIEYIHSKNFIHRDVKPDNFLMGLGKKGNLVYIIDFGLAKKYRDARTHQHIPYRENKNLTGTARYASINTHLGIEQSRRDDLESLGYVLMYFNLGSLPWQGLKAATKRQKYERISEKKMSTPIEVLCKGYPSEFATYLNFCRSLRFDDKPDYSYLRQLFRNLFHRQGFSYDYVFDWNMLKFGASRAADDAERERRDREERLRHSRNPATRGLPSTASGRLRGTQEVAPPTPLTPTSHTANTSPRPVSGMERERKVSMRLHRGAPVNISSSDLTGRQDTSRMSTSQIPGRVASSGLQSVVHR
CYP 2C9, sequence (P11712 whole entry): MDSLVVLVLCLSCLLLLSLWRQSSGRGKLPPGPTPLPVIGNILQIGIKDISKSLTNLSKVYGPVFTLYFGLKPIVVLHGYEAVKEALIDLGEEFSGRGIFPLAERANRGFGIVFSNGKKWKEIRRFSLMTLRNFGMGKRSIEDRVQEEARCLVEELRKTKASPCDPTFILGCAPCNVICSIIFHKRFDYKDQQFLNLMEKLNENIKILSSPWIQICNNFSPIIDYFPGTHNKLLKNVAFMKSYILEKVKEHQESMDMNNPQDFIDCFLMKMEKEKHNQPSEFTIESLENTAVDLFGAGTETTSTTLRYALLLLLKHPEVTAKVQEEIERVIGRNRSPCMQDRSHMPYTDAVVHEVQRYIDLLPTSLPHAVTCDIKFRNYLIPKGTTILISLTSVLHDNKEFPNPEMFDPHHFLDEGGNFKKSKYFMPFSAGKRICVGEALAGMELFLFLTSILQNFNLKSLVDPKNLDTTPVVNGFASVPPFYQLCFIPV

A word on the solubility: it is the dissolved amount per volume that the medium holds. For orientation: IC50 means the concentration that inhibits the measured activity by half. Broadly, the GI50 is the concentration at which growth is held to half of that of the control. Read a high GI50 as less potent growth inhibition. One may read the Kd as the free concentration of one partner at which half of the binding sites on the other are occupied at equilibrium, for simple one-to-one binding. The low end stands for a tighter complex, the high end for a looser complex. `Cn1cc(-n2cnc3c(NCc4nc5cc(Cl)c(Cl)cc5[nH]4)nc(N4CCOCC4)nc32)cn1` [Compound 5, N-((5,6-dichloro-1H-benzo[d]imidazol-2-yl)methyl)-9-(1-methyl-1H-pyrazol-4-yl)-2-morpholino-9H-purin-6-amine]: the Synergy with irinotecan entry in the data set with MDA-MB-231 cells (compound 5 plus Irinotecan) is “highly synergistic”. Also, the “Synergy with Olaparib” value in the data set on MDA-MB-231 cells (compound 5 plus Olaparib) is given as “highly synergistic”. Besides, the solubility in data set [1] was found to be 0.3 µM (≈ 0.15 µg/mL). For the same compound, the half-maximal inhibitory concentration (IC50) was 1580 nM against CK1ε and 2940 nM at CK1δ. Moreover, the “CYP inhibition 1A2” value on CYP 1A2 was 50 % inh. Besides, the “CYP inhibition 2D6” value on CYP 2D6 amounted to 66 % inh. The half-life amounted to 16 min in data set [2], 19 min in [3] and 12 min in [4]. Further, the 50% growth inhibitory concentration (GI50) with U87 cell line and with MDA-MB-231 cell line was below 2 nM in each case. Moreover, on CDK13, binding was put at a Kd of 5 nM. In data set [5] (compound 5 plus lapatinib), the Synergy with lapatinib entry is given as “highly synergistic”. In addition, the Synergy with trastuzumab result in data set [5] (compound 5 plus trastuzumab) is “highly synergistic”. Also, the “CYP inhibition 2C9” value at CYP 2C9 turned out to be 70 % inh.

The record behind these values is patent US11666578B2, “Small molecule inhibitors of CDK12/CDK13” (The Scripps Research Institute, priority 2018, dated 2023).
